Results reported in US12208108B2, “Drug targets of delayed aging and human brain diseases” (Texas Tech University System, priority 2016, dated 2025).
Marks after values point to notes of the source that are not given here.

Assays:
[1] = system: Human Neuroblastoma (SHSY5Y) cells; experiment: mRNA levels by Sybr-Green real-time RT-PCR; assay type: cell-based
Protocol: mRNA levels of mitochondrial dynamics, mitochondrial biogenesis and synaptic genes. Using the reagent TriZol (Invitrogen), the inventors isolated total RNA from all DDQ-treated and untreated cells. mRNA levels of mitochondrial dynamic (Drp1, Fis1, Mfn1 and Mfn2), mitochondrial biogenesis genes (PGC1α, Nrf1, Nrf2 and TFAM) and synaptic genes (PSD95, synaptophysin, synapsin 1, synapsin 2, synaptobrevin 1, synaptobrevin 2, synaptopodin, and GAP43) were measured by using Sybr-Green chemistry-based quantitative real time RT-PCR.
FIG. 3 illustrates the experimental strategy of the cell culture work and including treatments. The cells were grown in a medium (1:1 DMEM and F12, 10% FBS, lx penicillin, and streptomycin) at 37° C. in a humified incubator with a 5% CO2 environment. After seeding were allowed to grow for 24-48 hrs or until 80% confluence in six-well plates and used for experiments. The inventors used five different groups of cells—(1) untreated SHSY5Y cells; (2) SHSY5Y cells treated with DDQ (250 nM final concentration) for 24 hrs; (3) SHSY5Y cells incubated with Aβ peptide 1-42 (20 uM final concentration) for 6 hrs; (4) SHSY5Y cells treated Aβ for 6 hrs+DDQ for 24 hrs and (5) SHSY5Y cells treated DDQ for 24 hrs and Aβ for 6 hrs. Half a million SHSY5Y cells were suspended per well into six-well plates. The inventors used Aβ peptide 1-42 and DDQ 250 nM in the experiments. After treatments, the inventors harvested cells, conducted experiments to measure the levels mRNA using Sybr-Green based real-time RT-PCR, proteins using immunoblotting and immunofluorescence analysis and cell viability using MTT assay. The inventors counted the number of mitochondria by electron microscopy.
Quantification of mitochondrial dynamics, biogenesis and synaptic genes expression using real-time RT-PCR. Using the reagent TriZol (Invitrogen), the inventors isolated total RNA from control and experimental groups (FIG. 3). Using primer express Software (Applied Biosystems), the inventors designed the oligonucleotide primers for the housekeeping genes β-actin, mitochondrial structural genes; fission (Drp1 and Fis1); fusion genes (MFN1, MFN2); mitochondrial biogenesis genes PGC1a, Nrf1, Nrf2 and TFAM; and synaptic genes (PSD95, synaptophysin, synapsin 1, synapsin 2, synaptobrevin 1, synaptobrevin 2, synaptopodin, and GAP43). Using SYBR-Green chemistry-based quantitative real-time RT-PCR, the inventors measured mRNA expression of the genes mentioned above as described by Manczak et al..

[2] = system: mutant APPSwe/Ind cells; experiment: Sandwich ELISA of Aβ40 and Aβ42; assay type: cell-based, mouse; conditions: DDQ treated vs DDQ untreated mutant APPSwe/Ind cells, protein lysates
Source text: FIGS. 9A and 9B show sandwich ELISA analysis of Aβ40 and 42 in mutant APPSwe/Ind cells treated and untreated with DDQ. The inventors performed sandwich ELISA using protein lysates mutant APP cells treated and untreated with DDQ.
DDQ reduces soluble Aβ42 in mutant APPSwe/Ind cells treated with DDQ. To determine whether DDQ reduces Aβ levels, the inventors performed sandwich ELISA using protein lysates of mutant APPSwe/Ind cells treated with DDQ. […] These observations indicate that DDQ reduces Aβ42 levels in mutant APPSwe/Ind cells.
Mutant APPSwe/Ind cells: The inventors purchased mutant APPSwe cDNA clone (pCAX-APPSwe/Ind) from Addgene—https://www.addgene.org and verified expression of mutant APP APPSwe/Ind cDNA and further sub-cloned into a mammalian expression vector (Arubala P. Reddy—unpublished observations). The inventors transfected mutant APPSwe/Ind cDNA into mouse neuroblastoma (N2a) cells for 24 hrs and after transfection, cells were treated with DDQ (250 nM) for 24 hrs. The inventors harvested mutant APPSwe/Ind cells treated and untreated with DDQ and prepared protein lysates and performed co-immunoprecipitation using Aβ (6E10) antibody and conducted immunoblotting analysis with 6E10 and Drp1 antibodies.

[3] = Aβ + DDQ (Aβ1-42 20 μM 6 hrs, then DDQ 24 hrs) vs untreated cells
[4] = Aβ + DDQ (Aβ1-42 6 hrs, then DDQ 24 hrs) vs Aβ treated cells
[5] = DDQ 250 nM 24 hrs vs untreated cells
[6] = DDQ + Aβ (DDQ 24 hrs, then Aβ1-42 6 hrs) vs Aβ treated cells
[7] = DDQ + Aβ (DDQ 24 hrs, then Aβ1-42 6 hrs) vs untreated cells

CCOP(=O)(OCC)C(NCCc1ccc(O)c(O)c1)c1ccnc2ccccc12 (stereo not drawn) [DDQ, diethyl(3,4-dihydroxyphenethylamine)(quinolin-4-yl)methylphosphonate] was tested, and the “Drp1 mRNA fold changes” value [1, 3] was 1.9* fold, the “Fis1 mRNA fold changes” value [1, 3] was −1.2 fold and the “GAP43 mRNA fold changes” value [1, 3] was 1.1 fold. For the same molecule, the “Mfn1 mRNA fold changes” value [1, 3] was 1.4 fold, the “Mfn2 mRNA fold changes” value [1, 3] was 1.3 fold and the “Nrf1 mRNA fold changes” value [1, 3] was −1.7* fold. For the same molecule, the “Nrf2 mRNA fold changes” value [1, 3] was −1.3 fold, the “PGC1a mRNA fold changes” value [1, 3] was −1.8* fold and the “PSD95 mRNA fold changes” value [1, 3] was −1.4* fold. For the same molecule, the “Synapsin1 mRNA fold changes” value [1, 3] was 1.1 fold, the “Synapsin2 mRNA fold changes” value [1, 3] was 1.1 fold and the “Synaptobrevin1 mRNA fold changes” value [1, 3] was −1.1 fold. The “Synaptobrevin2 mRNA fold changes” value [1, 3] was 1.0 fold, the “Synaptophysin mRNA fold changes” value [1, 3] was −2.4* fold and the “Synaptopodin mRNA fold changes” value [1, 3] was −1.1 fold. The “TFAM mRNA fold changes” value [1, 3] was −2.0* fold, the “Drp1 mRNA fold changes” value [1, 4] was −1.7* fold and the “Fis1 mRNA fold changes” value [1, 4] was −2.0* fold. The “GAP43 mRNA fold changes” value [1, 4] was 1.7* fold, the “Mfn1 mRNA fold changes” value [1, 4] was 3.3** fold and the “Mfn2 mRNA fold changes” value [1, 4] was 3.4** fold. The “Nrf1 mRNA fold changes” value [1, 4] was 2.6 fold, the “Nrf2 mRNA fold changes” value [1, 4] was 2.1 fold and the “PGC1a mRNA fold changes” value [1, 4] was 2.5 fold. The “PSD95 mRNA fold changes” value [1, 4] was 1.8* fold, the “Synapsin1 mRNA fold changes” value [1, 4] was 2.1* fold and the “Synapsin2 mRNA fold changes” value [1, 4] was 2.4* fold. The “Synaptobrevin1 mRNA fold changes” value [1, 4] was 2.0* fold, the “Synaptobrevin2 mRNA fold changes” value [1, 4] was 2.1* fold and the “Synaptophysin mRNA fold changes” value [1, 4] was 1.6* fold. The “Synaptopodin mRNA fold changes” value [1, 4] was 2.0* fold, the “TFAM mRNA fold changes” value [1, 4] was 2.3 fold and the “Drp1 mRNA fold changes” value [1, 5] was −2.2* fold. The “Drp1 mRNA levels, fold decrease” value [1, 5] was 2.2 fold, the “Fis1 mRNA fold changes” value [1, 5] was −4.4*** fold and the “Fis1 mRNA levels, fold decrease” value [1, 5] was 4.4 fold. For the same molecule, the “GAP43 mRNA fold changes” value [1, 5] was 1.2 fold, the “Mfn1 mRNA fold changes” value [1, 5] was 1.7 fold and the “Mfn2 mRNA fold changes” value [1, 5] was 2.3 fold. For the same molecule, the “Nrf1 mRNA fold changes” value [1, 5] was 1.9 fold, the “Nrf2 mRNA fold changes” value [1, 5] was 2.7 fold and the “PGC1a mRNA fold changes” value [1, 5] was 1.5 fold. For the same molecule, the “PSD95 mRNA fold changes” value [1, 5] was 1.4 fold, the “Synapsin1 mRNA fold changes” value [1, 5] was 1.0 fold and the “Synapsin2 mRNA fold changes” value [1, 5] was 1.7 fold. The “Synaptobrevin1 mRNA fold changes” value [1, 5] was 1.0 fold, the “Synaptobrevin2 mRNA fold changes” value [1, 5] was 1.3 fold and the “Synaptophysin mRNA fold changes” value [1, 5] was 1.4 fold. The “Synaptopodin mRNA fold changes” value [1, 5] was 1.0 fold, the “TFAM mRNA fold changes” value [1, 5] was 1.7 fold and the “Drp1 mRNA fold changes” value [1, 6] was −4.6*** fold. For the same molecule, the “Fis1 mRNA fold changes” value [1, 6] was −2.5* fold, the “GAP43 mRNA fold changes” value [1, 6] was 1.7* fold and the “Mfn1 mRNA fold changes” value [1, 6] was 2.9** fold. The “Mfn2 mRNA fold changes” value [1, 6] was 2.9** fold, the “Nrf1 mRNA fold changes” value [1, 6] was 4.9 fold and the “Nrf2 mRNA fold changes” value [1, 6] was 2.6 fold. For the same molecule, the “PGC1a mRNA fold changes” value [1, 6] was 3.9 fold, the “PSD95 mRNA fold changes” value [1, 6] was 2.1* fold and the “Synapsin1 mRNA fold changes” value [1, 6] was 2.5* fold. For the same molecule, the “Synapsin2 mRNA fold changes” value [1, 6] was 2.9** fold, the “Synaptobrevin1 mRNA fold changes” value [1, 6] was 1.7* fold and the “Synaptobrevin2 mRNA fold changes” value [1, 6] was 2.3* fold. For the same molecule, the “Synaptophysin mRNA fold changes” value [1, 6] was 2.4* fold, the “Synaptopodin mRNA fold changes” value [1, 6] was 2.1* fold and the “TFAM mRNA fold changes” value [1, 6] was 3.2 fold. For the same molecule, the “Drp1 mRNA fold changes” value [1, 7] was −2.1* fold, the “Fis1 mRNA fold changes” value [1, 7] was −1.3 fold and the “GAP43 mRNA fold changes” value [1, 7] was 1.1 fold. For the same molecule, the “Mfn1 mRNA fold changes” value [1, 7] was 1.2 fold, the “Mfn2 mRNA fold changes” value [1, 7] was 1.1 fold and the “Nrf1 mRNA fold changes” value [1, 7] was 1.1 fold. The “Nrf2 mRNA fold changes” value [1, 7] was −1.1 fold, the “PGC1a mRNA fold changes” value [1, 7] was −1.1 fold and the “PSD95 mRNA fold changes” value [1, 7] was −1.2 fold. For the same molecule, the “Synapsin1 mRNA fold changes” value [1, 7] was 1.3 fold, the “Synapsin2 mRNA fold changes” value [1, 7] was 1.8* fold and the “Synaptobrevin1 mRNA fold changes” value [1, 7] was −1.4 fold. The “Synaptobrevin2 mRNA fold changes” value [1, 7] was 1.0 fold, the “Synaptophysin mRNA fold changes” value [1, 7] was −1.6* fold and the “Synaptopodin mRNA fold changes” value [1, 7] was −1.1 fold. The “TFAM mRNA fold changes” value [1, 7] was −1.5* fold, the Aβ40 levels [2] was “significantly increased” and the Aβ42 levels [2] was “significantly decreased levels”.
